According to publication PMC5925453 (EBioMedicine, 2018):

What was measured:
Format in all cases: cell-based
[1] = system: PC9 (exon 19 deletion) cells; test: Cell viability assay; conditions: for IC50: Homo sapiens, PC-9, 72 h
11–18 (Leu858Arg) cells = test: cells; conditions: 72 h
[2] = system: HCC4006 (exon 19 deletion) cells; test: Cell viability assay; conditions: Homo sapiens, HCC4006, 72 h
[3] = system: HCC827 (exon 19 deletion) cells; test: Cell viability assay; conditions: Homo sapiens, HCC827, 72 h
[4] = system: STAT3 and FAK phosphorylation; test: Western blotting, dasatinib or TPX-0005, PC9 and H1975 cell lines; conditions: dasatinib 50 and 100 μM respectively, 24 h
[5] = system: H1975 (Leu858Arg and Thr790Met) cells; test: cells; conditions: for IC50: Homo sapiens, NCI-H1975, 72 h
[6] = system: EGFR downstream signal transduction pathways and RTKs; test: Western blotting, osimertinib with TPX-0005, PC9, 11–18 and H1975 cell lines; conditions: TPX-0005 1 μM, 24 h
[7] = system: phospho-STAT3 in PC9 cells; test: Immunofluorescence and imaging flow cytometry of STAT3 / phospho-STAT3; conditions: 24 h
[8] = system: mRNA expression of RTK and non-RTK genes; test: Quantitative RT-PCR after treatment, PC9 and H1975 cells; conditions: TPX-0005 1 μM alone or combined with an EGFR TKI, five days
[9] = osimertinib 0.05, 0.8 and 0.02 μM respectively

IC50 [1] [nM]	IC50 (11–18 (Leu858Arg) cells) [nM]	IC50 [2] [nM]	IC50 [3] [nM]	IC50 [5] [nM]	Compound	STAT3 and FAK phosphorylation [4]	Src and FAK phosphorylation [6, 9]	interaction of TPX-0005 with gefitinib (cell viability, colony formation) ([1]; PC9 cells)	interaction of TPX-0005 with osimertinib (cell viability, colony formation) [5]	STAT3 activation state by intracellular localization (immunofluorescence) [7]	AXL total protein expression [6]	CDCP1 phosphorylation [6, 9]	mRNA expression of most of the transcripts explored [8]
< 10	10	< 10	< 10	–	COc1cc2ncnc(Nc3ccc(F)c(Cl)c3)c2cc1NC(=O)/C=C/CN1CCCCC1 [Dacomitinib]	–	–	–	–	–	–	–	–
–	–	–	–	–	Cc1nc(Nc2ncc(C(=O)Nc3c(C)cccc3Cl)s2)cc(N2CCN(CCO)CC2)n1 [Dasatinib]	induced	–	–	–	–	–	–	–
20	–	10	10	20	C=CC(=O)Nc1cc(Nc2nccc(-c3cn(C)c4ccccc34)n2)c(OC)cc1N(C)CCN(C)C [Osimertinib]	–	induced	–	–	–	–	–	–
1000	–	1480	–	1000	C[C@H]1CNC(=O)c2cnn3ccc(nc23)N[C@H](C)c2cc(F)ccc2O1 [TPX-0005]	–	abrogated	synergistic	synergistic	did not occur	minor effect	diminished	abolished or attenuated
